Laboratory results taken from publication PMC11249632, “Activation of the Calcium-Sensing Receptor by a Subfraction of Amino Acids Contained in Thyroid Drainage Fluid” (ACS Pharmacology & Translational Science, 2024).

Experiments:
calcium-sensing receptor [1] = molecular target: T1, calcium-sensing receptor (Homo sapiens, UniProt P41180, R990G); test: Fura-2 intracellular calcium mobilization, receptor-expressing vs nontransfected HEK293 cells; assay type: cell-based; set-up: gene CASR; recombinant human receptor stably expressed in HEK293 cells
T1 sequence (P41180 20-1078 R990G): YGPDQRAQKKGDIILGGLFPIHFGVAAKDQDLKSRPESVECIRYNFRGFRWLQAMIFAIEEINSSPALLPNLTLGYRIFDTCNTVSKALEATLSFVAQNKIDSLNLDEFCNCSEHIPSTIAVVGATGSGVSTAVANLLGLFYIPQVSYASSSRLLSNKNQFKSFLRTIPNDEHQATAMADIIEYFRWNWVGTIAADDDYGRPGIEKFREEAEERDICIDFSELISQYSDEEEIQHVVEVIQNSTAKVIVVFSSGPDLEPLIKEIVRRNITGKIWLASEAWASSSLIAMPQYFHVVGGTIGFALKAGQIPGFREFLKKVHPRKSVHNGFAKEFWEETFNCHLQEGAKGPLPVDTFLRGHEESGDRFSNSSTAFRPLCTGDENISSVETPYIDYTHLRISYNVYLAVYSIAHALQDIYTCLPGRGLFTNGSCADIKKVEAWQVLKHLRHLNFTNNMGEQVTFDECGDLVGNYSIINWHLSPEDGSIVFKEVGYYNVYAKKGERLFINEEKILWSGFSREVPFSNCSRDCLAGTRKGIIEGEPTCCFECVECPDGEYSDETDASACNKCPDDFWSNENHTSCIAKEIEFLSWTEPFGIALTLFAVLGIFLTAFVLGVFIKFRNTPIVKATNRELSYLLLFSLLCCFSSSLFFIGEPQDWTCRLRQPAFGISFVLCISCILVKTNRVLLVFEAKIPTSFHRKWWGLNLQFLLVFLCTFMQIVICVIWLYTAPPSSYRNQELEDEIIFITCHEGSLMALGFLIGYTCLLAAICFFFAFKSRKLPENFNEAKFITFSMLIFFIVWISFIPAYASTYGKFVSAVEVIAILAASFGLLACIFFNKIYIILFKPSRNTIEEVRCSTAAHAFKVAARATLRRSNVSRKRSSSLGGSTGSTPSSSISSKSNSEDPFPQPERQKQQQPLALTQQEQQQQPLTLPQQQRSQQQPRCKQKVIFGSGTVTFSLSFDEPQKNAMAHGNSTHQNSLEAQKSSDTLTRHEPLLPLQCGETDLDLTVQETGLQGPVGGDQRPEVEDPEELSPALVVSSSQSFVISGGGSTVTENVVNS

calcium-sensing receptor [2] = molecular target: T1, calcium-sensing receptor; test: Fura-2 intracellular calcium mobilization, receptor-expressing vs nontransfected HEK293 cells, blocked by NPS-2143; assay type: cell-based; set-up: gene CASR; recombinant human receptor stably expressed in HEK293 cells
calcium-sensing receptor [3] = molecular target: T1, calcium-sensing receptor; test: Fura-2 intracellular calcium mobilization in receptor-expressing HEK293 cells; inhibition of Ca2+-mediated activation at neutral pH (IC50 […] at pH ~[…]); assay type: cell-based; set-up: gene CASR; recombinant human receptor stably expressed in HEK293 cells
calcium-sensing receptor [4] = molecular target: T1, calcium-sensing receptor; set-up: gene CASR

## N[C@@H](CC(=O)O)C(=O)O [L-aspartate]
calcium-sensing receptor [1]
  Fura-2 intracellular calcium mobilization, receptor-expressing vs nontransfected: Concentration-dependent receptor activation by L-glutamate (A) and L-aspartate (B)

## N[C@@H](CCC(=O)O)C(=O)O [L-glutamate]
calcium-sensing receptor [2]
  Fura-2 intracellular calcium mobilization, receptor-expressing vs nontransfected: ~ 5 mM

## CC(C)(Cc1ccc2ccccc2c1)NC[C@@H](O)COc1cccc(Cl)c1C#N [NPS-2143, 2-chloro-6-[(2R)-2-hydroxy-3-[(2-methyl-1-naphthalen-2-ylpropan-2-yl)amino]propoxy]benzonitrile]
calcium-sensing receptor [3]
  IC50: ~500 nM

## N[C@@H](CCC(=O)N[C@@H](CS)C(=O)NCC(=O)O)C(=O)O [glutathione]
calcium-sensing receptor [4]
  Fura-2 intracellular calcium mobilization in receptor-expressing HEK293 cells: > 3 mM
